Where two headings read alike, the source gives them in different places. Blank lines part the entries; values can stand above or below the substance they belong to.
Assays:
[1] = tested on: BM-hMSCs; experiment: Flow cytometry of MSC surface markers; type: cell-based, human; settings: for surface marker expression of stimulated BM-hMSCs: 3 days; for CD45 Positive (%) / CD90 Positive (%): flow cytometry, Fig. S11b
Experimental: The marker expression of BM-hMSCs unstimulated or stimulated using 1.3 nM rhHGF or 32 nM aMD4dY-PA22 for 3 days were analyzed via flow cytometry. Harvested cells were blocked with PBS supplemented with Human TruStain FcX (Biolegend) for 10 min on ice. […] For the isotype controls, 1:10 diluted PE mouse IgG1 k Isotype (Biolegend) and FITC mouse IgG1 k Isotype (Biolegend) were utilized. After washing two times with a cell stain buffer, cells were analyzed using Attune NxT flow cytometer (Thermo Fisher Scientific).

[2] = tested on: Met; experiment: Cell-based phospho-Met ELISA (HuCCT1 cells); design: species or system human; settings: phospho-Met ELISA and Erk signaling reporter assay
Experimental: The phosphorylation level of Met was evaluated according to a previously reported method[6],[32], with slight modifications. In brief, HuCCT-1 cells at a density of 10,000 cells/well were seeded on 96-well cell culture plates and incubated overnight in 5% CO2 at 37 °C. The cells were stimulated by rhHGF, purified HGF mimetic STaMPtides, and monomeric aMD4dY for 10 min in a 5% CO2 incubator at 37 °C. Next, cells were fixed using 4% paraformaldehyde in phosphate-buffered saline (PBS) for 20 min. Cells were washed three times with PBS and blocked with 1% BSA and 0.02% Triton X-100 in PBS for 30 min at room temperature. Cells were incubated with 1:1000 diluted phospho-Met (Tyr1234/1235) (D26) XP Rabbit mAb (Cell Signaling Technology) supplemented with 1% BSA in PBS at 4 °C overnight. After washing three times with PBS, the cells were incubated with 1:1000 diluted […] HRP-linked IgG antibody (Cell Signaling Technology) supplemented with 1% BSA in PBS at room temperature for 3 h. Cells were washed four times with PBS and incubated with 100 μL TMB substrate for 30 min. The reaction was stopped with an equal volume of 0.2 N sulfuric acid, and absorbance was quantified at 450 nm by the Molecular Imager ChemiDoc XRS System (Bio-Rad).

[3] = tested on: Met; experiment: SRE reporter assay for HGF activity (Erk-SRE, HEK293 cells); type: cell-based, human; settings: N=1; for Normalized Firefly/Renilla: Fig. S6b/c, 420 nM rhHGF
Experimental: The Met-activating ability of HGF mimetic STaMPtides was evaluated by SRE reporter assay using the SRE reporter vector (QIAGEN, Hilden, Germany) according to the manufacturer’s instructions. Briefly, 1 μL of the SRE reporter vector was mixed with 0.6 μL of Attractene Transfection Reagent (QIAGEN) in 50 μL of Opti-MEM medium (Thermo Fisher Scientific) to form a transfection complex. Next, HEK293 cells at a density of 40,000 cells/well were seeded on 96-well cell culture plates with the transfection complex and incubated overnight in 5% CO2 at 37 °C. The cells were starved with Opti-MEM containing 0.5% FBS, 1% non-essential amino acid solution, and penicillin-streptomycin and incubated at 37 °C for 4 h. Next, the cells were stimulated by rhHGF, purified HGF mimetic STaMPtides, monomeric aMD4dY, or decellularized supernatant overnight in a 5% CO2 incubator at 37 °C. The signal intensity was detected using the dual-luciferase reporter assay system (Promega Corporation) and a Nivo plate reader (PerkinElmer, Inc., Waltham, MA, USA). Reporter activity was calculated as (luminescence intensity of Firefly luciferase)/(luminescence intensity of Renilla luciferase) and normalized by that without a stimulant in order to determine the relative reporter activity.

[4] = molecular target: T1, recombinant human Met ectodomain-Fc (Homo sapiens, UniProt P08581); experiment: SPR analysis, human Met ectodomain; type: binding
T1 construct: recombinant human Met ectodomain-Fc; purchased R&D Systems
Experimental: Binding constants of the STaMPtides and monomeric macrocyclic peptides to their corresponding receptor ectodomains were determined by SPR analysis using Biacore T200 (Cytiva). HBS-EP + buffer (Cytiva) containing 0.1% dimethyl sulfoxide (DMSO; Sigma-Aldrich, St. Louis, MO, USA) was used as the running buffer. As ligands, recombinant human Met ectodomain-Fc and human EPOR ectodomain-Fc were immobilized to around 1000 response units on CM5 sensor chips using a human antibody capture kit (Cytiva). STaMPtides and monomeric macrocyclic peptides were injected in five concentrations at a flow rate of 30 μL/min using a single-cycle kinetics method. Binding constants were quantified by analysis of the 1:1 binding model.

T1 sequence (P08581 25-932 limits assumed): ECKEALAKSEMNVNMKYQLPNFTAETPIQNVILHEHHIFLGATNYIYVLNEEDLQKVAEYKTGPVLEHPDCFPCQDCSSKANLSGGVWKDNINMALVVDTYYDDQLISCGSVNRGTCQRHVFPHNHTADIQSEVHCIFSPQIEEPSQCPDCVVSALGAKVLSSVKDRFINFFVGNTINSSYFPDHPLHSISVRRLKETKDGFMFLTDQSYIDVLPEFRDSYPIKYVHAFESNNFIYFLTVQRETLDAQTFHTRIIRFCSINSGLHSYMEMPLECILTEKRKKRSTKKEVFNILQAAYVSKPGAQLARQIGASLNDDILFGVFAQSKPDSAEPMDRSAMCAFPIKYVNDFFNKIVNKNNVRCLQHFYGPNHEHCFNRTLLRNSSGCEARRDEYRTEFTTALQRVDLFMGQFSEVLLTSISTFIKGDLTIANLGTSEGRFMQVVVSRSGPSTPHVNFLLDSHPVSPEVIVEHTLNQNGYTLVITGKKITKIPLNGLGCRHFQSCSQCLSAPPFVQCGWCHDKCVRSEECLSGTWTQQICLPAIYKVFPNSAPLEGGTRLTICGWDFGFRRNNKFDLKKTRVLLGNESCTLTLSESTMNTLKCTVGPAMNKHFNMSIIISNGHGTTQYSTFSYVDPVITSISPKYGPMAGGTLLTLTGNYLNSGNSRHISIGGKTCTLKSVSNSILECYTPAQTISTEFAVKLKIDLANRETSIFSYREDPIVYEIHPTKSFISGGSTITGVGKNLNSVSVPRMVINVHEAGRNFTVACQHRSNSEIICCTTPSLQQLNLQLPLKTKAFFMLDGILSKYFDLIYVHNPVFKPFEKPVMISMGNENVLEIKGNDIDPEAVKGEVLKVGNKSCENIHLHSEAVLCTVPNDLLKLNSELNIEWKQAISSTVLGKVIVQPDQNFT

- Kd ([4]; Biacore T200, single-cycle kinetics, 1:1 binding model, N = 3, read-out: dissociation constant (KD)): 1 nM
- kd ([4]; Table S1, Average of N 1-3): 0.00046 M⁻¹ s⁻¹
- kd ([4]; Table S1, N 1): 0.0006 M⁻¹ s⁻¹
- Kd ([4]; Table S1, N 1, read-out: KD): 1.3 nM
- kd ([4]; Table S1, N 2): 0.00038 M⁻¹ s⁻¹
- Kd ([4]; Table S1, N 2, read-out: KD): 0.9 nM
- kd ([4]; Table S1, N 3): 0.00039 M⁻¹ s⁻¹
- Kd ([4]; Table S1, N 3, read-out: KD): 0.85 nM
Substance: AET - CRQFNRRTHEVWNLDCG - AAPAAPA PAAPAAPA PAAPAA PG - CRQFNRRTHEVWNLDC (bicyclic or more) [aMD4dY-PA22, HGF mimetic STaMPtide, two aMD4dY macrocycles with a 22-amino-acid PA linker, secreted by C. glutamicum]
- surface marker expression of stimulated BM-hMSCs [1]: expressed hMSC positive markers (CD105, CD73, CD90) and no negative markers (CD45, CD34)
- CD45 Positive (%) ([1]; replicate 1): 0.665%
- CD90 Positive (%) ([1]; replicate 1): 99.857%
- CD45 Positive (%) ([1]; replicate 2): 1.718%
- CD90 Positive (%) ([1]; replicate 2): 99.76%
- Met phosphorylation and Erk-SRE signaling activation [2]: at a comparable level with rhHGF
- Normalized F/R ([3]; Fig. S6d, supernatant, dilution 10): 4.6947
- Normalized F/R ([3]; Fig. S6d, supernatant, dilution 30): 5.172
- Normalized F/R ([3]; Fig. S6d, supernatant, dilution 90): 5.6777
- Normalized F/R ([3]; Fig. S6d, supernatant, dilution 810): 3.099
- Normalized F/R ([3]; Fig. S6d, supernatant, dilution 2430): 1.722
- Erk-SRE reporter activity of decellularized supernatants ([3]; rapid screening without purification): highest activity

Substance: rhHGF: recombinant human HGF (R&D Systems)
- surface marker expression of stimulated BM-hMSCs [1]: expressed hMSC positive markers (CD105, CD73, CD90) and no negative markers (CD45, CD34)
- CD45 Positive (%) ([1]; replicate 1): 1.409%
- CD90 Positive (%) ([1]; replicate 1): 99.927%
- CD45 Positive (%) ([1]; replicate 2): 1.405%
- CD90 Positive (%) ([1]; replicate 2): 99.878%
- Normalized F/R ([3]; Fig. S6a, 2.008 pM): 0.9952
- Normalized F/R ([3]; Fig. S6a, 10.04 pM): 0.9963
- Normalized F/R ([3]; Fig. S6a, 50.19 pM): 1.192
- Normalized F/R ([3]; Fig. S6a, 250.9 pM): 3.768
- Normalized F/R ([3]; Fig. S6a, 1.25471e-9 M): 8.884
- Normalized Firefly/Renilla ([3]; dilution 1000): 9.87
- Normalized Firefly/Renilla ([3]; dilution 10000): 1.622
